Marks after values point to notes of the source that are not given here.
Tests used:
Format in all cases: in vivo
[1] = system: argan (Argania spinosa) cuttings; assay: rooting of argan cuttings; conditions: in vivo
Protocol: The ability of exemplary conjugates to promote rooting in plants which are recalcitrant to rooting (in addition to the results obtained with Eucalyptus grandis in Example 3) was examined using cuttings of argan (Argania spinosa) and jojoba (Simmondsia chinensis) in a commercial nursery (Shorashim). The argan and jojoba cuttings were treated with 100 μM of a conjugate (any of Compounds 10-1t) with 6000 ppm IBA. The common treatment T-8 (talc with 8000 ppm IBA and a fungicide) or 6000 ppm IBA (without conjugate) served as a control.
(§1) Exemplary conjugates were also tested for rooting the hard-to-root species of avocado (VC801 rootstock) and argan, according to procedures described hereinabove.

[2] = system: avocado rootstock cuttings; assay: rooting of avocado rootstock cuttings; conditions: VC801 rootstock
Text: Avocado rootstock is extremely difficult to root. Currently, the common technique for propagating clones of avocado rootstock is to graft the desired rootstock on a seedling, and transfer to the dark to generate an etiolated branch. This branch can be rooted and grafted with the desired variety while still grafted on the seed [Frolich & Platt, California Avocado Society 1971-72 Yearbook 1972, 55:97-109]. However, the preparation of such twice-grafted seedlings is time-consuming and expensive.
The ability of exemplary conjugates to promote rooting in green avocado cuttings (in the presence of IBA) was therefore examined. In particular, Compounds 2h (MCPA-methanol), 4b (NAA-β-alanine methyl ester), 3g (2-DP-methyl-4-aminobenzoate), 3f (2-DP-p-toluidine), 1l (4-CPA-morpholine) and is (4-CPA-D-Trp) were tested.
as §1

[3] = system: cuttings from mature Eucalyptus grandis trees; assay: rooting of cuttings from mature Eucalyptus grandis trees; conditions: for root number compared to IBA control, in words: Example 12: 6000 ppm IBA and 50 μM conjugate dip plus spray
Protocol: Eight-year-old Eucalyptus grandis plants were grown from seeds and placed in a net house in 20 liter pots containing peat and tuff (70:30, v/v), drip irrigated and fertilized with 3 liters of Shefer™ 737 liquid fertilizer (ICL Fertilizers, Israel) per cubic meter of water. Cuttings were collected from branches which grew 2-2.5 meters above the ground. Cuttings were 2-3 mm thick branches, 15 cm long, with 1-2 pairs of leaves. The leaf blades were cut in half to decrease transpiration. Cuttings were treated with 6000 ppm IBA (potassium indole-3-butyric acid) for 1 minute with or without 100 μM of each tested compound. The tested compounds were either applied to the base of the cutting, with or without IBA and/or sprayed on the foliage in the presence of 0.05% Triton™ X-100 surfactant. Cuttings were rooted in rooting tables heated to 25° C. under constant 90% humidity, in a controlled-climate greenhouse. The rooting medium contained crushed polystyrene foam: vermiculite no. 3: pit (3:2:1, v/v/v). Rooting was recorded after 30-60 days. Roots system architecture was analyzed by WinRHIZO™ system scanner and software.
Exemplary conjugates prepared as described in Example 1 were tested for their ability to promote adventitious root (AR) formation in cuttings from mature eucalyptus (Eucalyptus grandis) trees. In this model, AR formation is difficult to induce, with 5-15% root development in the presence of IBA potassium salt [Abu-Abied et al., Plant J 2012, 71:787-799], such that effective AR formation indicates a potent root formation activity.
Various concentrations and mode of applications were tested for each compound in the presence or absence of IBA (the “gold standard” rooting enhancer). A concentration of 100 μM of each conjugate was used for an initial screen of 37 conjugates, in which the compounds were applied to the base of the cutting by dipping (submerging the cutting base in a solution of the conjugate for one minute) or to the foliage by spraying. After 45 days, the cuttings were scored for the presence of callus or roots.
Conjugates prepared as described herein were evaluated in a Eucalyptus grandis rooting model, according to procedures such as described hereinabove. The bases of cuttings (a 12-15 cm long branch with the two upper leaves, whose blades were cut in half) were dipped in a solution containing 6000 ppm IBA potassium salt and 50 μM of conjugate for 1 minute, and the leaves were sprayed with 50 μM of the same conjugate (mixed with 0.5% Triton™ X-100 surfactant). The cuttings were imbedded in a heated (25° C.) rooting table containing a 1:2:3 ratio of peat:vermiculite:polystyrene, under 90% relative humidity.

Arabidopsis seedlings [4] = assay: adventitious root formation in intact etiolated Arabidopsis seedlings
Protocol: (§2) Adventitious roots (ARs) were induced in intact plants, using previously described procedures [Gutierrez et al., Plant Cell 2009, 21:3119-3132; Abu-Abied et al., Plant J 2012, 71:787-799; Rasmussen et al., Plant Physiol 2012, 158:1976-1987]. Briefly, seeds were germinated on MS/0.8% agar plates supplemented with 3% sucrose. The plates were kept in the dark for 2 days at 4° C., then 5 days at 22° C. in the dark, 2 days in the light, 3 days in the dark and then additional 4 days in the light to complete 2 weeks when roots were counted using a stereoscope. Sensitivity to auxin and/or auxin analogs was determined by following root elongation on vertical plates. The 4-day-old seedlings were transferred to MS plates containing 0.05 or 0.5 μM IAA and the root length was measured after 5 days, including the number of LRs in each root and calculation of the LR density. Each treatment experiment included 10-15 plants and was repeated 3 times.
In a third assay utilizing an Arabidopsis model, induction of adventitious root AR formation in intact plants was examined in the presence of 50 nM of tested compounds, which included 5 days incubation in the dark, followed by a shift to the light, according to procedures described by Sorin et al. [Plant Cell 2005, 17:1343-1359].
Conjugates prepared as described herein were evaluated in an Arabidopsis rooting model, according to procedures such as described hereinabove. Seeds were germinated and kept in the dark for 4 days. The etiolated seedlings were then incubated for 1 hour in 10 μM of each compound and then transferred to vertical MS medium-containing plates.

mung bean cuttings = assay: rooting of mung bean cuttings (number of adventitious roots per cutting); conditions: tested at 2, 10 or 50 μM
Protocol: Mung bean cuttings have been used for many years as a model for assessing the effect of plant hormones and synthetic chemicals on the rooting process. In the present study, this system was used to ascertain activity of conjugates in inducing adventitious root (AR) formation, and to evaluate the rate of conjugate hydrolysis that releases the free active auxin. […] The rooting activity in this system is determined by the number of adventitious roots per cutting.
The mung bean model was used to examine the activity of conjugates of three phenoxy acids, 4-CPA, MCPA, and 2-DP, on rooting. For comparison, plants were treated with (unconjugated) IBA or with 2-DP conjugated to glycine methyl ester (Gly-ME).

Arabidopsis seedlings [5] = assay: root elongation inhibition in Arabidopsis seedlings; conditions: 50 nM, after 5 days
Protocol: as §2
A common technique for evaluating auxin activity is by determining the ability of a compound to inhibit root elongation [Zolman et al., Genetics 2000, 156:1323-1337]. In order to use this assay for comparing auxin activities of different conjugates, the minimum concentration of free 4-CPA that is active in the root elongation inhibition assay was determined. Four days old seedlings were placed in vertical plates containing increasing concentrations of 4-CPA. The root lengths were marked daily during 5 days.
Based on the above results, the effect of conjugates of 4-CPA (Compounds 1o-1t) on root elongation after 5 days was determined at concentrations of 50 nM.

DR5:venus marker = assay: auxin activity by DR5:venus fluorescence in Arabidopsis plants; conditions: 10 μM
Protocol: Imaging was performed using an SP8 Leica confocal microscope including solid-state lasers producing 405, 488, 514 and 552 nm light, and hybrid or PMT detectors. Objectives were either PL APO 20×/0.75, WD 0.62 mm or PL APO 63×/1.2 WD 0.3 mm. For fluorescence measurements, the Imaris™ spot detection option (Bitplane A.G.) was used to segment nuclei and calculate the average signal intensity.
One technique for assessing auxin activity of the 4-CPA amino acid conjugates utilized plants expressing nucleus-localized, fluorescent DR5:venus marker, the expression level of which is an indicator of intracellular auxin activity [Laskowski et al., PLoS Biol 2008, 6:e307]. Four days old seedlings grown on regular MS medium were transferred to plates containing 10 μM of the tested compounds and fluorescence was inspected by confocal microscope after 24 hours.
In order to assess the ability of the abovementioned sodium salts to penetrate the cells and activate an auxin response, an Arabidopsis DR5-Venus model was utilized (as described hereinabove). The plants were exposed to 10 μM of each compound for 24 hour; MS medium was used as a negative control, and the related Compounds 1p, 1r and 1t were used as positive controls.

[6] = system: Pinus halepensis cuttings; assay: rooting and root development in pine cuttings; conditions: 400 ppm IBA potassium salt + 5 ppm conjugate, 4 hours dip; 12 weeks
Protocol: The effects of exemplary D-amino acid conjugates of 4-CPA (Compounds to and Is) on rooting in Pinus halepensis cuttings were compared with those of 2-DP-glycine methyl ester conjugate (2-DP-Gly). Rooting mature pine cuttings (i.e., cuttings that are taken from trees more than 4 years old) is very difficult.
Apical cuttings were taken from 7-year-old trees, stored for 4 weeks at 4° C., and treated by dipping the cutting bases for 4 hours in the following solution: 400 ppm IBA potassium salt+5 ppm tested conjugate+0.1% Amistar™ fungicide (250 grams/liter azoxystrobin). The cuttings were evaluated after 12 weeks.

COC(=O)[C@H](CC(N)=O)NC(=O)COc1ccc(Cl)cc1 [4-CPA-L-Asn-methyl ester]
number of roots per cutting in argan clone YM3 compared to IBA control, in words [1]: considerably increased the number of roots per cutting | root architecture / root length of VC801 avocado cuttings compared to IBA control, in words [2]: considerably increased root length

COC(=O)[C@H](Cc1cnc[nH]1)NC(=O)COc1ccc(Cl)cc1 [4-CPA-L-His-methyl ester]
number of roots per cutting in argan clone YM3 compared to IBA control, in words [1]: considerably increased the number of roots per cutting | root architecture / root length of VC801 avocado cuttings compared to IBA control, in words [2]: considerably increased root length

CC[C@H](C)[C@H](NC(=O)COc1ccc(Cl)cc1)C(=O)OC [4-CPA-L-Ile-methyl ester]
number of roots per cutting in argan clone YM3 compared to IBA control, in words [1]: considerably increased the number of roots per cutting | root number compared to IBA control, in words [3]: promoted an increase in root number | rooting of cuttings, repeated experiment in a different season ([3]; Example 12 repeat: 6000 ppm IBA with 50 μM conjugate, or IBA control): 50% | root architecture / root length of VC801 avocado cuttings compared to IBA control, in words [2]: more roots per cutting and considerably longer roots | rooting of VC801 avocado cuttings ([2]; conjugate, or IBA control): 60%

COC(=O)[C@H](CC(C)C)NC(=O)COc1ccc(Cl)cc1 [4-CPA-L-Leu-methyl ester]
number of roots per cutting in argan clone YM3 compared to IBA control, in words [1]: considerably increased the number of roots per cutting | root number compared to IBA control, in words [3]: promoted an increase in root number | root architecture / root length of VC801 avocado cuttings compared to IBA control, in words [2]: considerably increased root length | average number of adventitious roots (Arabidopsis seedlings [4]; Example 12: etiolated seedlings, 1 hour in 10 μM): 10

COC(=O)[C@H](NC(=O)COc1ccc(Cl)cc1)C(C)C [Compound 1o]
effect on AR formation in mung bean cuttings, in words (mung bean cuttings): induced rooting to a degree positively correlated with concentration | appearance of the roots compared with IBA alone ([3]; 6000 ppm IBA with 100 μM compound, submersion and spraying): appeared more branched | adventitious roots formed on average (Arabidopsis seedlings [4]; intact etiolated seedlings, 50 nM, FIG. 17 legend 10 μM for one hour): 0.5±0.3 | effect on root elongation relative to control, in words (Arabidopsis seedlings [5]): did not affect root elongation | DR5 fluorescence (auxin activity), in words (DR5:venus marker): significantly lower fluorescence | Degree of root development Medium (%) [6]: 14.3% | Degree of root development Weak (%) [6]: 7.2% | Degree of root development Well-developed (%) [6]: 71.4* % | Rooting rate (%) [6]: 100%
